IC50 and EC50 data for 24 molecules are collected here from patent US20170210751A1, “PRMT5 INHIBITORS AND USES THEREOF” (Epizyme, Inc., priority 2014, published 2017).

The term IC50 denotes the concentration that inhibits the measured activity by half. By EC50 is commonly meant the midpoint of the concentration-response curve. Read a low EC50 as an effect from little substance.

Bounds are passed on as bounds.

The target of test [1] is T1, PRMT5/MEP50 (Homo sapiens, UniProt O14744).
T1 construct: Flag-PRMT5; made in house; host or cells: Spodoptera frugiperda (SF9) insect cells, baculovirus (pDEST8)
T1 sequence (O14744 with tags, fused parts or gaps): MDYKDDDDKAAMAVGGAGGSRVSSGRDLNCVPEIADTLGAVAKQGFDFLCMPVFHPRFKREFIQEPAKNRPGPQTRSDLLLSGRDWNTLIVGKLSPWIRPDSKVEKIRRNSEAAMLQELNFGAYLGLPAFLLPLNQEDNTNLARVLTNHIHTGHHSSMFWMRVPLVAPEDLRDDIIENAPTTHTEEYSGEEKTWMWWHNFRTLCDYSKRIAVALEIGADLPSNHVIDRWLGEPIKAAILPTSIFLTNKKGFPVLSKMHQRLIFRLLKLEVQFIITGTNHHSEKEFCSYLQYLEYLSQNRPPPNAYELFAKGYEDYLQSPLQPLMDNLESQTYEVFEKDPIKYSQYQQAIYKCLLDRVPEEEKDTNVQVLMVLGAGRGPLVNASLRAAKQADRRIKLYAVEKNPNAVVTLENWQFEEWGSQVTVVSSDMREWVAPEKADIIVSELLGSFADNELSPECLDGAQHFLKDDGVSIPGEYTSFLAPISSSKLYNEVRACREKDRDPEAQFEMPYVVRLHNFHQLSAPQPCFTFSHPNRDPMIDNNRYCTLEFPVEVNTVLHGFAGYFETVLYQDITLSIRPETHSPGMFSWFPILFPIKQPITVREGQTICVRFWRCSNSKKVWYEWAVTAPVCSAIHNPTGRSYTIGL
T1 sequence (Q9BQA1 with tags, fused parts or gaps partner limits assumed): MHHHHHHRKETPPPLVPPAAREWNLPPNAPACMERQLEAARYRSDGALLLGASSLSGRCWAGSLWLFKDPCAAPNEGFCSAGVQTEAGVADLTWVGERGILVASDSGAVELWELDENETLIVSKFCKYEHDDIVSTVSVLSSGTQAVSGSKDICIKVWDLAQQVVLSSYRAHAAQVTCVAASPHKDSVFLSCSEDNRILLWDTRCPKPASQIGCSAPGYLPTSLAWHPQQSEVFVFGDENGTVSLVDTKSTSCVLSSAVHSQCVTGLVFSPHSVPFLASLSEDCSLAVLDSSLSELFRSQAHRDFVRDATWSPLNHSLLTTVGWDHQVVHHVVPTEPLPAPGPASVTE
The test is described as follows: PRMT5 Biochemical Assay (PRMT5/MEP50 enzyme assay on peptide substrate, 3H-SAM Flashplate). To be noted: PRMT5/MEP50 4 nM, 3H-SAM 75 nM, peptide 40 nM, 30 min preincubation at 25 degrees Celsius. The method, boiled down:
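FLAG-PRMT5/His-MEP50 from Sf9 cells (4 nM) preincubated 30 min at 25 °C with compounds, then reacted with 75 nM 3H-SAM and 40 nM biotinylated histone H4 1-15 peptide in Bicine pH 7.6, 1% DMSO. Stopped with 600 uM cold SAM; streptavidin Flashplate capture, scintillation counts; % inhibition fitted to 3- or 4-parameter curve.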

Test [2] deals with Z-138 cell line. Description: Z-138 Proliferation Assay (Cell Titer Glo). Type of test: cell-based. To be noted: Homo sapiens, 120 h; Z-138 cells, 5 days incubation, ATP (Cell Titer Glo). The source says: Z-138 Proliferation Assay
Z-138 suspension cells were purchased from ATCC (American Type Culture Collection, Manassas, Va.). RPMI/Glutamax medium, penicillin-streptomycin, heat inactivated fetal bovine serum were purchased from Life Technologies, Grand Island, N.Y., USA. V-bottom polypropylene 384-well plates were purchased from Greiner Bio-One, Monroe, N.C., USA. Cell culture 384-well white opaque plates were purchased from Perkin Elmer, Waltham, Mass., USA. Cell-Titer Glo® was purchased from Promega Corporation, Madison, Wis., USA. SpectraMax M5 plate reader was purchased from Molecular Devices LLC, Sunnyvale, Calif., USA.
Z-138 suspension cells were maintained in growth medium (RPMI 1640 supplemented with 10% v/v heat inactivated fetal bovine serum and cultured at 37° C. under 5% CO2. Under assay conditions, cells were incubated in assay medium (RPMI 1640 supplemented with 10% v/v heat inactivated fetal bovine serum and 100 units/mL penicillin-streptomycin) at 37° C. under 5% CO2.
For the assessment of the effect of compounds on the proliferation of the Z-138 cell line, exponentially growing cells were plated in 384-well white opaque plates at a density of 10,000 cells/ml in a final volume of 50 μl of assay medium. A compound source plate was prepared by performing triplicate nine-point 3-fold serial dilutions in DMSO, beginning at 10 mM (final top concentration of compound in the assay was 20 μM and the DMSO was 0.2%). A 100 nL aliquot from the compound stock plate was added to its respective well in the cell plate. […] After addition of compounds, assay plates were incubated for 5 days at 37° C., 5% CO2, relative humidity >90%.
Cell viability was measured by quantitation of ATP present in the cell cultures, adding 35 μl of Cell Titer Glo® reagent to the cell plates. Luminescence was read in the SpectraMax M5 microplate reader. The concentration of compound inhibiting cell viability by 50% was determined using a 4-parametric fit of the normalized dose response curves.
(In ATP-based viability assays light output follows the ATP content of the culture.)

As to `CC(=O)N1CCC(Nc2cc(C(=O)NC[C@H](O)CN3CCc4oc(C)nc4C3)ncn2)CC1` [Compound 4-3, (S)-6-((1-acetylpiperidin-4-yl)amino)-N-(2-hydroxy-3-(2-methyl-6,7-dihydrooxazolo[4,5-c]pyridin-5(4H)-yl)propyl)pyrimidine-4-carboxamide], the IC50 in test [1] is over 10 µM. The molecule also showed an EC50 in test [2] of over 5 µM.
As to `CC(=O)N1CCC(Nc2cc(C(=O)NC[C@H](O)CN3CCc4[nH]nc(-c5ccccc5)c4C3)ncn2)CC1` [Compound 3-12, (S)-6-((1-acetylpiperidin-4-yl)amino)-N-(2-hydroxy-3-(3-phenyl-6,7-dihydro-1H-pyrazolo[4,3-c]pyridin-5(4H)-yl)propyl)pyrimidine-4-carboxamide], the IC50 in test [1] was over 10 µM. In addition, the 50% effective concentration (EC50) in test [2] is over 5 µM.
On the same counts, the results for `CC(=O)N1CCC(Nc2cc(C(=O)NC[C@H](O)CN3CCc4[nH]cnc4C3)ccn2)CC1` [Compound 3-36, (S)-2-((1-acetylpiperidin-4-yl)amino)-N-(3-(6,7-dihydro-1H-imidazo[4,5-c]pyridin-5(4H)-yl)-2-hydroxypropyl)isonicotinamide] are over 10 µM and over 5 µM.
On the same counts, the results for `CC(=O)N1CC(Nc2cc(C(=O)NC[C@H](O)CN3CCc4nc(N)sc4C3)ncn2)C1` [Compound 1-29] are 1 to 10 µM and over 5 µM.
In the case of `Cn1cnc2c1CCN(C[C@@H](O)CNC(=O)c1cc(NC3COC3)ncn1)C2` [Compound 3-28], in test [1], the IC50 was over 10 µM. The same molecule showed an EC50 in test [2] of over 5 µM.
For `CC(=O)N1CCC(Nc2cc(C(=O)NC[C@H](O)CN3CCc4[nH]ncc4C3)ccn2)CC1` [Compound 3-21] the same measures were 1 to 10 µM and over 5 µM.
As to `CC(=O)N1CCC(Nc2cc(C(=O)NC[C@H](O)CN3CCc4sc(C)nc4C3)ccn2)CC1` [Compound 1-33], the IC50 in test [1] lay within 1 to 10 µM. For the same molecule, in test [2], the EC50 is over 5 µM.
For `CC(=O)N1CCC(Nc2cc(C(=O)NC[C@H](O)CN3CCc4oc(C)nc4C3)ccn2)CC1` [Compound 4-4, (S)-2-((1-acetylpiperidin-4-yl)amino)-N-(2-hydroxy-3-(2-methyl-6,7-dihydrooxazolo[4,5-c]pyridin-5(4H)-yl)propyl)isonicotinamide] the same measures were over 10 µM and over 5 µM.
On the same counts, the results for `Nc1nc2c(s1)CN(C[C@@H](O)CNC(=O)c1cc(NC3COC3)ncn1)CC2` [Compound 1-23] are over 10 µM and over 5 µM.
On the same counts, the results for `CC(=O)N1CC(Nc2cc(C(=O)NC[C@H](O)CN3CCc4oc(C)nc4C3)ncn2)C1` [Compound 4-2, (S)-6-((1-acetylazetidin-3-yl)amino)-N-(2-hydroxy-3-(2-methyl-6,7-dihydrooxazolo[4,5-c]pyridin-5(4H)-yl)propyl)pyrimidine-4-carboxamide] are over 10 µM and over 5 µM.
With `CC(=O)N1CCC(Nc2cc(C(=O)NC[C@H](O)CN3CCc4c(ncn4C)C3)ccn2)CC1` [Compound 3-22, (S)-2-((1-acetylpiperidin-4-yl)amino)-N-(2-hydroxy-3-(1-methyl-6,7-dihydro-1H-imidazo[4,5-c]pyridin-5(4H)-yl)propyl)isonicotinamide], the IC50 in test [1] is over 10 µM. Further, in test [2], the EC50 is over 5 µM.
Take `CC(=O)N1CC(Nc2cc(C(=O)NC[C@H](O)CN3CCc4ncccc4C3)ncn2)C1` [Compound 2-9, (S)-6-((1-acetylazetidin-3-yl)amino)-N-(3-(7,8-dihydro-1,6-naphthyridin-6(5H)-yl)-2-hydroxypropyl)pyrimidine-4-carboxamide]: the IC50 in test [1] lay within 0.101 to 1 µM. Also, the concentration for a half-maximal effect (EC50) in test [2] is over 5 µM.
For `Cc1nc2c(o1)CCN(C[C@@H](O)CNC(=O)c1cc(NC3COC3)ncn1)C2` [Compound 4-1, (S)—N-(2-hydroxy-3-(2-methyl-6,7-dihydrooxazolo[4,5-c]pyridin-5(4H)-yl)propyl)-6-(oxetan-3-ylamino)pyrimidine-4-carboxamide], in test [1], the IC50 is over 10 µM. Also, the EC50 in test [2] is over 5 µM.
On the same counts, the results for `Nc1nc2c(s1)CCN(C[C@@H](O)CNC(=O)c1cc(NC3COC3)ncn1)C2` [Compound 1-20, (S)—N-(3-(2-amino-6,7-dihydrothiazolo[4,5-c]pyridin-5(4H)-yl)-2-hydroxypropyl)-6-(oxetan-3-ylamino)pyrimidine-4-carboxamide] are over 10 µM and over 5 µM.
`CC(=O)N1CC(Nc2cc(C(=O)NC[C@H](O)CN3CCc4c(ncn4C)C3)ncn2)C1` [Compound 3-45]: the IC50 in test [1] is over 10 µM. Moreover, the EC50 in test [2] is over 5 µM.
For `CC(=O)N1CCC(Nc2cc(C(=O)NC[C@H](O)CN3CCc4scc(C)c4C3)ncn2)CC1` [Compound 1-13, (S)-6-((1-acetylpiperidin-4-yl)amino)-N-(2-hydroxy-3-(3-methyl-6,7-dihydrothieno[3,2-c]pyridin-5(4H)-yl)propyl)pyrimidine-4-carboxamide] the same measures were under 0.1 µM and 0.101 to 1 µM.
On to `CC(=O)N1CCC(Nc2cc(C(=O)NC[C@H](O)CN3CCc4cnccc4C3)ncn2)CC1` [Compound 2-17, (S)-6-((1-acetylpiperidin-4-yl)amino)-N-(3-(3,4-dihydro-2,6-naphthyridin-2(1H)-yl)-2-hydroxypropyl)pyrimidine-4-carboxamide], for which the IC50 in test [1] lay in the range of 0.101 to 1 µM. Moreover, the EC50 in test [2] was over 5 µM.
On the same counts, the results for `CC(=O)N1CCC(Nc2cc(C(=O)NC[C@H](O)CN3CCc4ncccc4C3)ccn2)CC1` [Compound 2-20, (S)-2-((1-acetylpiperidin-4-yl)amino)-N-(3-(7,8-dihydro-1,6-naphthyridin-6(5H)-yl)-2-hydroxypropyl)isonicotinamide] are 0.101 to 1 µM and over 5 µM.
As for `CC(=O)N1CCC(Nc2cc(C(=O)NC[C@H](O)CN3CCc4cccnc4C3)ccn2)CC1` [Compound 2-21, (S)-2-((1-acetylpiperidin-4-yl)amino)-N-(3-(5,6-dihydro-1,7-naphthyridin-7(8H)-yl)-2-hydroxypropyl)isonicotinamide], the IC50 in test [1] was 0.101 to 1 µM. For the same molecule, the EC50 in test [2] is over 5 µM.
For `CC(=O)N1CC(Nc2cc(C(=O)NC[C@H](O)CN3CCc4[nH]nc(-c5ccccc5)c4C3)ncn2)C1` [Compound 3-11, (S)-6-((1-acetylazetidin-3-yl)amino)-N-(2-hydroxy-3-(3-phenyl-6,7-dihydro-1H-pyrazolo[4,3-c]pyridin-5(4H)-yl)propyl)pyrimidine-4-carboxamide], in test [1], the concentration for half-maximal inhibition (IC50) was 1 to 10 µM. Also, the EC50 in test [2] was over 5 µM.
For `CC(=O)N1CC(Nc2cc(C(=O)NC[C@H](O)CN3CCc4cccnc4C3)ncn2)C1` [Compound 2-13] the same measures were 0.101 to 1 µM and 1 to 10 µM.
For `CC(=O)N1CC(Nc2cc(C(=O)NC[C@H](O)CN3CCc4cnccc4C3)ncn2)C1` [Compound 2-16] the same measures were 0.101 to 1 µM and over 5 µM.
`CC(=O)N1CCC(Nc2cc(C(=O)NC[C@H](O)CN3CCc4cn[nH]c4C3)ncn2)CC1` [Compound 3-51]: the IC50 in test [1] was over 10 µM. In test [2], this molecule displayed an EC50 of over 5 µM.
For the molecule `CC(=O)N1CC(Nc2cc(C(=O)NC[C@H](O)CN3CCc4ncsc4C3)ncn2)C1` [Compound 1-17, (S)-6-((1-acetylazetidin-3-yl)amino)-N-(3-(6,7-dihydrothiazolo[5,4-c]pyridin-5(4H)-yl)-2-hydroxypropyl)pyrimidine-4-carboxamide], the IC50 in test [1] was over 10 µM. This molecule also displayed an EC50 in test [2] of over 5 µM.
